Data from patent US20250296909A1, “NOVEL BENZENE DERIVATIVE AND IMMUNOSUPPRESSION-RELATED USE THEREOF” (PROVIBIO CO., LTD., priority 2021, published 2025).

Tested on: psoriasis mouse animal model
Assay: Psoriasis mouse animal model (imiquimod-induced)
Type: in vivo, BALB/c mice
Conditions: 40 mg/kg intraperitoneally twice a day
From the text: To confirm the therapeutic effect of compounds according to the present invention on psoriasis, a psoriasis animal model was established to evaluate the alleviation of skin lesions and changes in immune cell profiles by administering Compound 69 or Compound 83 via injection.
To establish a psoriasis mouse animal model, BALB/c mice (7 weeks old, 20 g, female) were purchased from Hana Biotech Co. and allowed to acclimate to the housing environment for one week. Afterward, the fur on the dorsal area of the mice was initially shaved using a shaver, followed by complete removal with depilatory cream (Nicrin Cream, comprising thioglycolic acid 80%, manufactured by ILDONG Pharmaceutical CO., LTD). The mice were then housed for 24 hours to confirm any wounds on their backs.
Subsequently, in order to verify the preventive and therapeutic effects of compounds according to the present invention on psoriasis, five experimental groups were established as shown in FIG. 7 and Table 5. From the second to the fifth group, Aldara® cream was applied once daily for two weeks (14 days, total of 14 applications) at a dose of 80 mg (imiquimod, 4 mg) per mouse to induce psoriasis. Furthermore, to compare the preventive and therapeutic effects of compounds according to the present invention (Compound 69 and Compound 83) on psoriasis, 40 mg/kg of the compound per mouse was dissolved in DMSO corresponding to 10% of the dosing volume, and then diluted in a mixture of Cremophor EL-PEG 400-distilled water to achieve a final ratio of DMSO: Cremophor EL:PEG 400:distilled water to 1:1:4:4 (v/v/v/v). Subsequently, the respective injections were intraperitoneally administered at a dose of 100 μL per mouse, twice a day with a 12-hour interval. For the Vehicle control group, injections excluding the drug but comprising the vehicle solution (DMSO: Cremophor EL:PEG 400:distilled water=1:1:4:4 (v/v/v/v)) were administered at a dose of 100 μL per mouse, twice a day with a 12-hour interval.
To assess the impact of each compound on immune cells in vivo, the spleens of mice treated with each compound were harvested, and cells were extracted, and cells were suspended in MACS buffer (2 mM EDTA, 0.5% FBS, 137 mM NaCl, 2.7 mM KCl, 10 mM Na2HPO4, 1.8 mM KH2PO4, Miltenyi Biotech.). For flow cytometry analysis, each mouse's splenocytes were aliquoted at 5×10^5 cells per FACS tube (5 mL round tube, Falcon). To prevent non-specific antibody binding, each tube was treated with 1 μg/mL of anti-mouse CD16/CD32 (InVivoMAb) for 30 minutes, followed by centrifugation at 13,000 rpm for 5 minutes, and resuspended in 100 μL of MACS buffer. Subsequent experiments were conducted depending on the type of immune cells to be examined.
(§1) For B cells, each FACS tube was stained with 1 μg/mL of FITC-conjugated anti-B220 antibody (eBioscience™) at 4° C. for 30 minutes, followed by washing with 2 mL of MACS buffer. Subsequently, each tube was centrifuged at 15,000 rpm for 5 minutes, the supernatant was removed, and the precipitated cells were fixed using 200 μL of 4% paraformaldehyde solution.
For T cells, each FACS tube was stained with 1 μg/mL of PerCP-Cy5.5-conjugated anti-CD3 antibody (Biolegend), FITC-conjugated anti-CD8 antibody (eBioscience™) and Cy7-conjugated anti-CD4 antibody (eBioscience™) at 4° C. for 30 minutes, followed by washing with 2 mL of MACS buffer. Subsequently, each tube was centrifuged at 15,000 rpm for 5 minutes, the supernatant was removed, and the precipitated cells were fixed using 200 μL of 4% paraformaldehyde solution.
as §1, with “macrophages,” for “B cells,”, “anti-CD11b” for “anti-B220”

[1] = flow cytometry, versus psoriasis groups, FIG. 10

## CCCCCCCCCCCCNC(=O)c1cccnc1N [Compound 69]
14 days, FIG. 8
  skin lesions (erythema, thickness, exfoliation of back skin): either minimally present or hardly observed
14 days, FIG. 9
  hyperkeratosis, parakeratosis, irregular acanthosis, infiltration of inflammatory cells (H&E staining): either minimally present or hardly observed
[1]
  proportion of B cells in the spleen: increase
  proportion of CD11b granulocytes in the spleen: decreased
  proportion of T cells in the spleen: increase
